Laboratory results from US20180243363A1, “NEUROKININ 1 RECEPTOR AGONIST MEDIATED PROTECTION OF THE EYE” (WAYNE STATE UNIVERSITY, priority 2016, published 2018).
Where a SMILES comes first, the peptide text is derived from it. [ ]: non-standard residue; d: D form. NMeL = CN[C@@H](CC(C)C)C(=O)O; Ava = NCCCCC(=O)O

Assays:
NK1R [1] = target: T1, NK1R (Mus musculus, UniProt P30548); test: Phenol red thread tear volume after ocular HSV-1 infection, GR73632 I.P. treatment; format: in vivo, mice; parameters: from tissue; host or cells: living mice (in vivo; eye / tear read-out after systemic dosing); settings: GR73632 I.P. treated vs control treated group
T1 sequence (P30548 whole entry): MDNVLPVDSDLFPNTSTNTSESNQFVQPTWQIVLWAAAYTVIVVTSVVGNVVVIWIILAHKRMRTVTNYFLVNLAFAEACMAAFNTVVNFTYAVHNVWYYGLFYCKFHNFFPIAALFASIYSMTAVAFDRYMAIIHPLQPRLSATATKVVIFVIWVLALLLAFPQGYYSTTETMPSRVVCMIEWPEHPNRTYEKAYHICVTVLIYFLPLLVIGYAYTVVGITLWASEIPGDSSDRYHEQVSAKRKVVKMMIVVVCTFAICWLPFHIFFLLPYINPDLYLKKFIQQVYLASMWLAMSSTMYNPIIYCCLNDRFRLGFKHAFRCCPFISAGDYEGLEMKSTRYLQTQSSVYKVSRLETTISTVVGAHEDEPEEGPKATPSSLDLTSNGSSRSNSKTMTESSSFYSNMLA
Method: FIGS. 12A, 12B. Increased tear volume at D7 and D10 post ocular HSV-1 infection (POI) in GR73632 I.P treated eyes compared to the control treated group. Phenol Red thread (yellow color) images showing the thread wetness (red color) measured in mm.
Corneal HSV-1 infection. To carry out ocular HSV-1 infection, mice were first anesthetized by intra-peritoneal injection of Ketamine (33 mg/Kg bodyweight)+Xylazine (20 mg/Kg bodyweight) in 0.2 ml PBS. The cornea was scarified with trephine (Fine Science Tools, Foster City, Calif.) while twisting three to four times over the corneal surface. 1×10^4 plaque forming units (p.f.u) of HSV-1 virus were then topically applied with a pipette to the eye in 3 μL of 1×PBS followed by gentle massage of the eyelids.
(§1) Phenol red thread tear test. To measure the tear levels in the eyes of unmanipulated B6 and NK1R^−/− mice, pH indicator phenol red treated cotton threads were obtained from Zone-Quick (ZQ-1010, Showa Yakuhin Kako, Japan). The mice were restrained by holding the lose skin at the base of the neck without touching the facial skin or whiskers. The eyes were tested for tear level by placing the tip of the cotton thread on the bulbar conjunctiva of the lateral canthus for 30 seconds. A picture of the threads was taken and tear absorption was measured using a 10 cm scale.

NK1R [2] = target: T1, NK1R; test: Tear film (basal tear volume) after systemic NK1R antagonist administration; format: in vivo; parameters: from tissue; host or cells: living C57Bl/6 mice (in vivo; basal tear volume); settings: systemic treatment, C57Bl/6 mice
Method: FIG. 14. Alteration in Tear Film after NK1R antagonist administration.
as §1

| Molecule | tear volume (phenol red thread wetness) (NK1R [1]; D7 post ocular HSV-1 infection, p<0.05) | tear volume (phenol red thread wetness) (NK1R [1]; D10 post ocular HSV-1 infection, p<0.01) | volume of basal tears (NK1R [2]) |
| --- | --- | --- | --- |
| CSCC[C@H](NC(=O)[C@H](CC(C)C)N(C)C(=O)[C@@H]1CCCN1C(=O)[C@H](Cc1ccccc1)NC(=O)[C@H](Cc1ccccc1)NC(=O)CCCCN)C(N)=O [GR73632] (H-[Ava]FFP[NMeL]M-NH2) | Significant increase in tear volume | Significant increase in tear volume |  |
| Spantide I |  |  | reduces the volume of basal tears |
